Where a SMILES comes first, the peptide text is derived from it. Bridges are numbered along the chain shown (N, C = ends). Where no end group is shown, it is not given here. [ ]: non-standard residue; d: D form. tBuAla = CC(C)(C)C[C@H](N)C(=O)O; Nva = CCC[C@H](N)C(=O)O; Abu = CC[C@H](N)C(=O)O
Key:
porcine coronary artery = type: cell-based; conditions: for Constrictor activity (Relative potency): ET-1 = 100; for Maximum Constriction (% 60 mM KCl): normalized to constriction response to 60 mM KCl
Method: Each of helical strips 2 mm×15 mm prepared from the coronary right ramus circumflexus from which the adventitial connective tissues and the endothelial cells were removed was set to each of 4 ml organ baths. Its tension was detected by a force displacement transducer UL-10GR (Minebea), and recorded by a polygraph (NEC Sanei). The organ baths were maintained at 37° C., and filled with a Krebs-Henseleit solution (composition:118 mM NaCl, 4.7 mM KCl, 2.5 mM CaCl2, 1.2 mM KH2 PO4, 25.0 mM NaHCO3, 1.2 mM MgSO4, 10.0 mM glucose) gassed with 95% O2 and 5% CO2.
A tension of 1.25 to 1.5 g was applied to each of the strips, followed by equilibration for 1.5 hours. 60 mM KCl was repeatedly applied thereto at intervals of 30 minutes until the constriction response became constant. After additional equilibration for 1.5 hours, a sample for assay was given. The constriction of the strips was normalized by the constriction response of the individual strips to 60 mM KCl and statistically processed.
(2) As to the antagonist property or the agonist property of the peptide derivatives of present invention to endothelin, the affinity for an endothelin receptor and the constrictor activity to porcine coronary smooth muscles (according to the method described in (1) described above) were assayed. The affinity for the receptor was assayed by the following method.

endothelin receptor = assay: Assay of affinity for receptor (I125-ET-1 binding to porcine myocardial membrane fraction); conditions: ET-1 = 100
Method: A membrane fraction prepared from the porcine heart was diluted to 0.15 mg/ml by using a buffer solution [PBS (pH 7.4) containing 0.5 mM CaCl2, 1.0 mM MgCl2, 0.02% NaN3, 0.1% BSA (fraction V, Sigma), 0.1 mM PMSF and 0.1 μg/ml pepstatin (binding buffer)] for assay, and 100 μl of the resulting suspension of the membrane fraction was poured into each assay tube to use for assay. To this suspension of the membrane fraction were added 2 μl of an endothelin-1 solution labeled with 5 μM radioactive iodine. Further, 3 μl of a test peptide solution was added thereto, followed by maintenance at a temperature of 25° C. for 1 hour. Then, the resulting suspension was diluted with 900 μl of the buffer solution for assay cooled with ice, and thereafter separated into a supernatant and a precipitate by centrifugation at 12,000×g for 10 minutes. Cell membranes and an endothelin receptor embedded therein were contained in the precipitate, and radioactive iodine-labeled endothelin combined with the receptor was also recovered in the precipitate. Accordingly, the amount of radioactive iodine-labeled endothelin combined with the endothelin receptor was determined by measuring the amount of radioactive iodine contained in the precipitate with a gamma-ray counter. Compounds in which the affinity for the endothelin receptor is high and the maximum constriction is not high are antagonists. Contrary to this, compounds in which the affinity for the endothelin receptor is high and the maximum constriction is high are agonists.

Compound | Receptor binding activity (Relative potency) (endothelin receptor) | Constrictor activity (Relative potency) (porcine coronary artery) | Maximum Constriction (% 60 mM KCl) (porcine coronary artery)
CC[C@H](C)[C@H](NC(=O)CNC(=O)[C@H](CC(C)C)NC(=O)[C@H](Cc1c[nH]cn1)NC(=O)[C@@H]1CSSC[C@H](N)C(=O)N[C@@H](CO)C(=O)N[C@H]2CSSC[C@H](NC(=O)[C@H](CCC(=O)O)NC(=O)[C@H](CCCCN)NC(=O)[C@H](CC(=O)O)NC(=O)[C@H](CCSC)NC(=O)[C@H](CC(C)C)NC(=O)[C@H](CO)NC(=O)[C@H](CO)NC2=O)C(=O)N[C@@H](C(C)C)C(=O)N[C@@H](Cc2ccc(O)cc2)C(=O)N[C@@H](Cc2ccccc2)C(=O)N1)C(=O)N[C@H](C(=O)N[C@@H](Cc1c[nH]c2ccccc12)C(=O)O)[C@@H](C)CC [Example 28, [Gly^18]-ET-1] (H-CSCSSLMDKECVYFCHLGIIW-OH; disulfide 1-15, 3-11) | 39.8 | 43 | 99
CC[C@H](NC(=O)[C@H](CC(C)C)NC(=O)[C@H](Cc1c[nH]cn1)NC(=O)[C@@H]1CSSC[C@H](N)C(=O)N[C@@H](CO)C(=O)N[C@H]2CSSC[C@H](NC(=O)[C@H](CCC(=O)O)NC(=O)[C@H](CCCCN)NC(=O)[C@H](CC(=O)O)NC(=O)[C@H](CCSC)NC(=O)[C@H](CC(C)C)NC(=O)[C@H](CO)NC(=O)[C@H](CO)NC2=O)C(=O)N[C@@H](C(C)C)C(=O)N[C@@H](Cc2ccc(O)cc2)C(=O)N[C@@H](Cc2ccccc2)C(=O)N1)C(=O)N[C@H](C(=O)N[C@H](C(=O)N[C@@H](Cc1c[nH]c2ccccc12)C(=O)O)[C@@H](C)CC)[C@@H](C)CC [Example 30, [Abu^18]-ET-1] (H-CSCSSLMDKECVYFCHL[Abu]IIW-OH; disulfide 1-15, 3-11) | 5.0 | < 0.1 | 6
CC[C@H](C)[C@H](NC(=O)[C@H](C)NC(=O)[C@H](CC(C)C)NC(=O)[C@H](Cc1c[nH]cn1)NC(=O)[C@@H]1CSSC[C@H](N)C(=O)N[C@@H](CO)C(=O)N[C@H]2CSSC[C@H](NC(=O)[C@H](CCC(=O)O)NC(=O)[C@H](CCCCN)NC(=O)[C@H](CC(=O)O)NC(=O)[C@H](CCSC)NC(=O)[C@H](CC(C)C)NC(=O)[C@H](CO)NC(=O)[C@H](CO)NC2=O)C(=O)N[C@@H](C(C)C)C(=O)N[C@@H](Cc2ccc(O)cc2)C(=O)N[C@@H](Cc2ccccc2)C(=O)N1)C(=O)N[C@H](C(=O)N[C@@H](Cc1c[nH]c2ccccc12)C(=O)O)[C@@H](C)CC [Example 25, [Ala^18]-ET-1] (H-CSCSSLMDKECVYFCHLAIIW-OH; disulfide 1-15, 3-11) | 9.1 | 7.8 | 62
CC[C@H](C)[C@H](NC(=O)[C@H](CC(C)C)NC(=O)[C@H](CC(C)C)NC(=O)[C@H](Cc1c[nH]cn1)NC(=O)[C@@H]1CSSC[C@H](N)C(=O)N[C@@H](CO)C(=O)N[C@@H](C)C(=O)N[C@@H](CO)C(=O)N[C@@H](CO)C(=O)N[C@@H](CC(C)C)C(=O)N[C@@H](CCSC)C(=O)N[C@@H](CC(=O)O)C(=O)N[C@@H](CCCCN)C(=O)N[C@@H](CCC(=O)O)C(=O)N[C@@H](C)C(=O)N[C@@H](C(C)C)C(=O)N[C@@H](Cc2ccc(O)cc2)C(=O)N[C@@H](Cc2ccccc2)C(=O)N1)C(=O)N[C@H](C(=O)N[C@@H](Cc1c[nH]c2ccccc12)C(=O)O)[C@@H](C)CC [Example 22, [Ala^3,11, Leu^18]-ET-1] (H-CSASSLMDKEAVYFCHLLIIW-OH; disulfide 1-15) | 1.27 | < 0.1 | 3
CC[C@H](C)[C@H](NC(=O)[C@@H](NC(=O)[C@H](CC(C)C)NC(=O)[C@H](Cc1c[nH]cn1)NC(=O)[C@@H]1CSSC[C@H](N)C(=O)N[C@@H](CO)C(=O)N[C@H]2CSSC[C@H](NC(=O)[C@H](CCC(=O)O)NC(=O)[C@H](CCCCN)NC(=O)[C@H](CC(=O)O)NC(=O)[C@H](CCSC)NC(=O)[C@H](CC(C)C)NC(=O)[C@H](CO)NC(=O)[C@H](CO)NC2=O)C(=O)N[C@@H](C(C)C)C(=O)N[C@@H](Cc2ccc(O)cc2)C(=O)N[C@@H](Cc2ccccc2)C(=O)N1)C(C)C)C(=O)N[C@H](C(=O)N[C@@H](Cc1c[nH]c2ccccc12)C(=O)O)[C@@H](C)CC [Example 27, [Val^18]-ET-1] (H-CSCSSLMDKECVYFCHLVIIW-OH; disulfide 1-15, 3-11) | 3.2 | < 0.1 | 2

Second part, led by results:

Receptor binding activity (Relative potency) (endothelin receptor) | Compound | Constrictor activity (Relative potency) (porcine coronary artery) | Maximum Constriction (% 60 mM KCl) (porcine coronary artery)
100 | CC[C@H](C)[C@H](NC(=O)[C@@H](NC(=O)[C@H](CC(C)C)NC(=O)[C@H](Cc1c[nH]cn1)NC(=O)[C@@H]1CSSC[C@H](N)C(=O)N[C@@H](CO)C(=O)N[C@H]2CSSC[C@H](NC(=O)[C@H](CCC(=O)O)NC(=O)[C@H](CCCCN)NC(=O)[C@H](CC(=O)O)NC(=O)[C@H](CCSC)NC(=O)[C@H](CC(C)C)NC(=O)[C@H](CO)NC(=O)[C@H](CO)NC2=O)C(=O)N[C@@H](C(C)C)C(=O)N[C@@H](Cc2ccc(O)cc2)C(=O)N[C@@H](Cc2ccccc2)C(=O)N1)[C@@H](C)O)C(=O)N[C@H](C(=O)N[C@@H](Cc1c[nH]c2ccccc12)C(=O)O)[C@@H](C)CC [Example 51, [Thr^18]-ET-1] (H-CSCSSLMDKECVYFCHLTIIW-OH; disulfide 1-15, 3-11) | 26 | 76
2.4 | CCC[C@H](NC(=O)[C@H](CC(C)C)NC(=O)[C@H](Cc1c[nH]cn1)NC(=O)[C@@H]1CSSC[C@H](N)C(=O)N[C@@H](CO)C(=O)N[C@H]2CSSC[C@H](NC(=O)[C@H](CCC(=O)O)NC(=O)[C@H](CCCCN)NC(=O)[C@H](CC(=O)O)NC(=O)[C@H](CCSC)NC(=O)[C@H](CC(C)C)NC(=O)[C@H](CO)NC(=O)[C@H](CO)NC2=O)C(=O)N[C@@H](C(C)C)C(=O)N[C@@H](Cc2ccc(O)cc2)C(=O)N[C@@H](Cc2ccccc2)C(=O)N1)C(=O)N[C@H](C(=O)N[C@H](C(=O)N[C@@H](Cc1c[nH]c2ccccc12)C(=O)O)[C@@H](C)CC)[C@@H](C)CC [Example 31, [Nva^18]-ET-1] (H-CSCSSLMDKECVYFCHL[Nva]IIW-OH; disulfide 1-15, 3-11) | < 0.1 | 2
0.59 | CC[C@H](C)[C@H](NC(=O)[C@H](CC(=O)O)NC(=O)[C@H](CC(C)C)NC(=O)[C@H](Cc1c[nH]cn1)NC(=O)[C@@H]1CSSC[C@H](N)C(=O)N[C@@H](CO)C(=O)N[C@@H](C(C)C)C(=O)N[C@@H](CO)C(=O)N[C@@H](CO)C(=O)N[C@@H](CC(C)C)C(=O)N[C@@H](CCSC)C(=O)N[C@@H](CC(=O)O)C(=O)N[C@@H](CCCCN)C(=O)N[C@@H](CCC(=O)O)C(=O)N[C@@H](C(C)C)C(=O)N[C@@H](C(C)C)C(=O)N[C@@H](Cc2ccc(O)cc2)C(=O)N[C@@H](Cc2ccccc2)C(=O)N1)C(=O)N[C@H](C(=O)N[C@@H](Cc1c[nH]c2ccccc12)C(=O)O)[C@@H](C)CC [Example 39, [Val^3,11]-ET-1] (H-CSVSSLMDKEVVYFCHLDIIW-OH; disulfide 1-15) | < 0.1 | 34
1.0 | CC[C@H](C)[C@H](NC(=O)[C@H](CC(C)(C)C)NC(=O)[C@H](CC(C)C)NC(=O)[C@H](Cc1c[nH]cn1)NC(=O)[C@@H]1CSSC[C@H](N)C(=O)N[C@@H](CO)C(=O)N[C@H]2CSSC[C@H](NC(=O)[C@H](CCC(=O)O)NC(=O)[C@H](CCCCN)NC(=O)[C@H](CC(=O)O)NC(=O)[C@H](CCSC)NC(=O)[C@H](CC(C)C)NC(=O)[C@H](CO)NC(=O)[C@H](CO)NC2=O)C(=O)N[C@@H](C(C)C)C(=O)N[C@@H](Cc2ccc(O)cc2)C(=O)N[C@@H](Cc2ccccc2)C(=O)N1)C(=O)N[C@H](C(=O)N[C@@H](Cc1c[nH]c2ccccc12)C(=O)O)[C@@H](C)CC [Example 45, [γ-Leu^18]-ET-1] (H-CSCSSLMDKECVYFCHL[tBuAla]IIW-OH; disulfide 1-15, 3-11) | < 0.1 | 3
0.27 | [Trp^3,11 ]-ET-1 (CSWSSLMDKEWVYFCHLDIIW; ends and bridges not checked; cysteine pairing not given here; UniProt P05305 53-73, looked up, variant C3W C11W) [Example 4] | < 0.1 | 10
